Assay results taken from US20150258047A1, “Therapeutic Compounds” (AKTHELIA PHARMACEUTICALS, priority 2011, published 2015).
Several values for one entry are separate records, joined by “and”; a condition that tells them apart may be missing. Equal values may be shown once. Read-outs that look alike come from different tables or passages of the source. Where no end group is shown, it is not given here.

Tests used:
[1] = test system: Moraxella catarrhalis
[2] = test system: Haemophilus influenzae
[3] = Maximum concentration of NaB in blood after IV administration (assumed blood volume); format: in vivo; settings: 0.14 mmol/dose; assuming blood volume of 121 ml in the 2 kg rabbit
Description: (§1) In a shigellosis model a 0.14 mmol/dose lead to 2 out of 3 rabbits recovering from shigellosis. Assuming a blood volume of 121 ml in the 2 kg rabbit the maximum concentration of NaB in the blood after IV administration would have been 1.2 mM.

[4] = test system: Shigella; assay: Anti-Shigella activity in stool extracts of treated rabbits; format: in vivo, rabbit; settings: compared to infected or healthy rabbits
Description: (§2) Anti-Shigella activity in stool extracts from PBA, TBG and NaB-treated rabbits was higher compared to infected or healthy rabbits.

[5] = test system: Shigella flexneri strain; settings: cited from earlier work
[6] = Butyrate concentration in rabbit serum after oral NaB; format: in vivo; settings: oral dosing of 15.6 mg to each rabbit, read-out: maximum concentration of butyrate in the blood (Cmax)
Description: FIG. 2. Butyrate concentration in healthy rabbit serum after oral treatment with NaB. Serum was collected from healthy rabbits at different time points after oral treatment with a single 0.14 mmol dose of NaB (15.6 mg). Four analyses (duplicate analyses of two samples) of serum from a NaB treated rabbit are shown, where the concentrations are calculated from two separate standard curves (one for each duplicate). NaB: Sodium butyrate.
The maximum concentration of butyrate in the blood is about 8 μM (Cmax) after oral dosing of 15.6 mg of butyrate to each rabbit.

[7] = test system: Shigella dysenteriae type 1 strain; settings: cited from earlier work
[8] = test system: Shigella; assay: Shigellosis rabbit model, clinical illness and recovery; format: in vivo; settings: for clinical illness: Shigella infected rabbits
Description: as §2, §1

[9] = test system: CAP-18; assay: CAP-18 immunoreactivity in epithelial lining of organs (immunostaining, ACIA score); format: in vivo, rabbit; settings: for CAP-18 peptide in the mucosal epithelia: Shigella infected rabbits, lung, trachea, rectum and colon; for CAP-18 in the organs of healthy rabbits: oral (FIG. 1B); for CAP-18 (protein) expression: oral, shigellosis infected rabbit, rectum, distal colon, kidney, lung and trachea relative to untreated infected rabbits (FIG. 1A)
Description: FIG. 1. CAP-18 immunoreactivity in the epithelial lining of different organs in (A) Healthy rabbits, Shigella-infected rabbits and infected rabbits treated with NaB, TBG or PBA (B) healthy rabbits treated with NaB, TBG or PBA. Quantification of immunoreactive area relative to the total cell area of the tissue section was done by a computerized image analysis technique, and the results are expressed as ACIA score, i.e., the total positively stained area×total mean intensity (1-256 levels/per pixel) of the positive area divided by total cell area. One-way ANOVA was used in comparing data between healthy and infected/infected treated rabbits, between infected and infected treated rabbits, and between healthy and healthy-treated rabbits. The differences were significant when P<0.05; ‡ significant when comparing with healthy, * significant when comparing with infected.

[10] = test system: CAP-18; assay: CAP-18 gene expression in tissue specimens of Shigella-infected rabbits; format: in vivo, rabbit; design: scale not given here; settings: treated Shigella-infected rabbits, n = 5, median
[11] = test system: Pseudomonas aeruginosa (strain PA01); assay: Visual inspection of VA10 cell cultures infected with Pseudomonas aeruginosa; format: cell-based; settings: VA10 cells induced 48 h with 20 nM vitamin D, 4 mM PBA or both; 24 hrs after infection; control wells dense culture of bacteria
Description: FIG. 7. Visual assessment of survival of VA10 cells in the presence of low infectivity Pseudomonas aeruginosa 0-1 bacteria (PAO1). After cultivating for 6 days the cells were stimulated for 48 h with 4-PBA, VitD, and 4-PBA+VitD. Subsequently the cells were stimulated for 24 h with 10 MOI PAO1 and inspected under the microscope.
VA10 cells were grown in BEGM medium (Bronchial Epithelial Growth Medium). VA10 cells were induced by adding PBA and/or vitamin D to the medium. Untreated control was included. After 48 h induction the culture was infected with low dose of Pseudomonas aeruginosa (strain PA01) along with freeze-thaw-treated bacteria. After 24 hrs of cultivation the culture wells were visually inspected. Dense culture of bacteria was found in control wells, but the wells of cells that had been induced with 20 nM vitamin D, 4 mM PBA or combination of 20 nM vitamin D and 4 mM PBA contained clear medium (FIG. 7).

[12] = after the administration of a 5 g dose; cited from earlier work
[13] = test system: DEFB-1; assay: DEFB-1 mRNA expression in VA10 cells by rtPCR; format: cell-based, human; settings: first 4-PBA, subsequently low-dose inactivated Pseudomonas bacteria
Description: FIG. 9. DEFB-1 expression in VA10 cells after 48 h stimulation with 4 mM 4-PBA, 20 nM VitD, and […]+20 nM VitD and subsequent 24 h stimulation with low infectivity freeze-thawed PAO1 suspension (PAO1 has been frozen in DMEM at −25° C. for a week. The majority of bacteria have been inactivated.)
In addition to the visual inspection the degree of induction of CAMP mRNA, that codes for LL-37, and DEFB-1, that codes for […], was determined by rtPCR.

[14] = test system: E. coli strain E2348/69 (EPEC); format: cell-based; settings: strain E2348/69 (EPEC, 0.90 μM)
Description: To assess bactericidal activity of synthetic CAP-18 and PBA, an in vitro killing experiment was carried out with E. coli strain E2348/69 (EPEC). […] Note that dosing in Phase II TB study is 1 g daily with 5000 IU vitamin D.

[15] = LP (lamina propria) distal colon
[16] = SE (surface epithelium) distal colon

Compound	Anti-Shigella activity in stool extracts [4]	clinical illness [8]	CAP-18 peptide in the mucosal epithelia [9]	CAP-18 in the organs of healthy rabbits [9]	CAP-18 (protein) expression [9]	CAP-18 gene expression ([10]; Kidney)	CAP-18 gene expression [10, 15]	CAP-18 gene expression ([10]; LP (lamina propria) rectum)	CAP-18 gene expression ([10]; Lungs)	CAP-18 gene expression [10, 16]	CAP-18 gene expression ([10]; SE (surface epithelium) rectum)	CAP-18 gene expression ([10]; Trachea)	CAP-18 gene expression ([10]; U. tract)	visual inspection of culture wells [11]	further results
CC[C@H](C)[C@H](NC(=O)[C@H](CCCCN)NC(=O)[C@H](CCC(=O)O)NC(=O)[C@H](CCCCN)NC(=O)[C@H](CO)NC(=O)[C@H](CCCCN)NC(=O)[C@H](CCCNC(=N)N)NC(=O)[C@H](Cc1ccccc1)NC(=O)[C@H](Cc1ccccc1)NC(=O)[C@H](CC(=O)O)NC(=O)CNC(=O)[C@H](CC(C)C)NC(=O)[C@@H](N)CC(C)C)C(=O)NCC(=O)N[C@@H](CCCCN)C(=O)N[C@@H](CCC(=O)O)C(=O)N[C@@H](Cc1ccccc1)C(=O)N[C@@H](CCCCN)C(=O)N[C@@H](CCCNC(=N)N)C(=O)N[C@H](C(=O)N[C@H](C(=O)N[C@@H](CCC(N)=O)C(=O)N[C@@H](CCCNC(=N)N)C(=O)N[C@H](C(=O)N[C@@H](CCCCN)C(=O)N[C@@H](CC(=O)O)C(=O)N[C@@H](Cc1ccccc1)C(=O)N[C@@H](CC(C)C)C(=O)N[C@@H](CCCNC(=N)N)C(=O)N[C@@H](CC(N)=O)C(=O)N[C@@H](CC(C)C)C(=O)N[C@H](C(=O)N1CCC[C@H]1C(=O)N[C@@H](CCCNC(=N)N)C(=O)N[C@H](C(=O)N[C@@H](CCC(=O)O)C(=O)N[C@@H](CO)C(=O)O)[C@@H](C)O)C(C)C)[C@@H](C)CC)C(C)C)[C@@H](C)CC [LL-37]	–	–	–	–	–	–	–	–	–	–	–	–	–	–	Zone diameter ([1]; 10 uM): 5.4 mm; Zone diameter ([1]; 25 uM): 6.3 mm; Zone diameter ([1]; 50 uM): 7.45 mm; Zone diameter ([1]; 100 uM): 8.9 mm; Zone diameter ([2]; 50 uM): 0 mm; Zone diameter ([2]; 100 uM): 7.75 mm; Zone diameter ([2]; 300 uM): 13.3 mm
CCCC(=O)O [NaB, sodium butyrate]	higher	reduced clinical illness	up-regulation	do not cause increase	systemic stimulation	17.4	0.55	0.1	12.6	5.0	0.3	0.71	0.19	–	maximum concentration in the blood after IV administration [3]: 1.2 mM; concentration for maximum killing [5]: 400 mM and 44 mg/ml; Cmax [6]: ~8 µM; concentration for maximum killing [7]: 400 mM and 44 mg/ml; rabbits recovering from shigellosis ([8]; 0.14 mmol/dose, intravenous): 2 out of 3; CAP-18 level ([9]; colonic SE, intravenous injection into infected rabbits): 5.6±1.8 ACIA score; CAP-18 level ([9]; colonic SE, orally treated infected rabbits): 7.4±0.5 ACIA score; CAP-18 level ([9]; rectal SE, intravenous injection into infected rabbits): 6.5±1.8 ACIA score; CAP-18 level ([9]; rectal SE, orally treated infected rabbits): 8.13±1 ACIA score
O=C(O)CCCc1ccccc1 [PBA, sodium 4-phenylbutyrate, reference compound]	higher	reduced clinical illness	up-regulation	do not cause increase	systemic stimulation	3.9	0.53	0.41	5.3	2.4	0.18	1.1	0.13	clear medium	Cmax [12]: 1200 µM; DEFB-1 expression [13]: up to six-fold
CCCC(=O)OCC(COC(=O)CCC)OC(=O)CCC [TBG, glyceryl tributyrate]	higher	reduced clinical illness	up-regulation	–	systemic stimulation	2.7	0.43	0.07	6.4	2.8	0.4	1.11	0.25	–	CAP-18 peptide level in the kidney ([9]; non-infected rabbits (FIG. 1B)): increased levels
GLRKRLRKFRNKIKEKLKKIGQKIQGLLPKLAPRTDY [CAP-18]	–	–	–	–	–	–	–	–	–	–	–	–	–	–	killing of EPEC [14]: 97-99%
vitamin D	–	–	–	–	–	–	–	–	–	–	–	–	–	clear medium	–
